*1 amine or outer side, *2 acyl side, *3 side chain or, on linkers, in order; H or OH if unused. Where a SMILES comes first, the peptide text is derived from it. Bridges are numbered along the chain shown (N, C = ends). [ ]: non-standard residue; d: D form. X1 = C#CCCC[C@H](O[*:2])C(C)(C)C(=O)[*:1]; X2 = C=CCCC[C@H](O[*:2])C(C)(C)C(=O)[*:1]; X3 = CCCCC[C@H](O[*:2])C(C)(C)C(=O)[*:1]; Hmpa(2S,3S) = CC[C@H](C)[C@H](O)C(=O)O; NMeV = CN[C@H](C(=O)O)C(C)C
Experiments:
HeLa = test: Growth inhibition of human HeLa cells after 72 hrs by MTT assay; type: functional, cell-based
HL-60 = test: Growth inhibition of human HL60 cells after 72 hrs by MTT assay; type: functional, cell-based; conditions: HL-60, 72 h

Row | IC50 (HeLa) [µM] | IC50 (HL-60) [µM] | Compound
1 | 29 | 19 | C#CCCC[C@@H]1OC(=O)[C@H](C)NC(=O)[C@H](CC(C)C)NC(=O)[C@@H]2CCCN2C(=O)[C@H]([C@@H](C)CC)OC(=O)[C@H](C(C)C)N(C)C(=O)[C@H](C(C)C)NC(=O)C1(C)C (V[NMeV][Hmpa(2S,3S)]PLA; linker N-C via X1)
2 | 23 | 6 | C=CCCC[C@@H]1OC(=O)[C@H](C)NC(=O)[C@H](CC(C)C)NC(=O)[C@@H]2CCCN2C(=O)[C@H]([C@@H](C)CC)OC(=O)[C@H](C(C)C)N(C)C(=O)[C@H](C(C)C)NC(=O)C1(C)C (V[NMeV][Hmpa(2S,3S)]PLA; linker N-C via X2)
3 | 18 | 11 | CCCCC[C@@H]1OC(=O)[C@H](C)NC(=O)[C@H](CC(C)C)NC(=O)[C@@H]2CCCN2C(=O)[C@H]([C@@H](C)CC)OC(=O)[C@H](C(C)C)N(C)C(=O)[C@H](C(C)C)NC(=O)C1(C)C (V[NMeV][Hmpa(2S,3S)]PLA; linker N-C via X3)

— ChEMBL document CHEMBL4190196, “Kohamamides A, B, and C, Cyclic Depsipeptides from an Okeania sp. Marine Cyanobacterium” (J Nat Prod, 2017)
